Results as given in article PMC11012124, “Synthesis of Novel Triazine-Based Chalcones and 8,9-dihydro-7H-pyrimido[4,5-b][1,4]diazepines as Potential Leads in the Search of Anticancer, Antibacterial and Antifungal Agents” (International Journal of Molecular Sciences, 2024).
Converted amounts (≈) assume the structure as drawn.

What was measured:
COLO 205 = test: cells; settings: Homo sapiens, COLO 205, 48 h; for CC50: read-out: LC50
[1] = test system: M. tuberculosis ATCC 27294; test: Antitubercular broth microdilution MIC; format: cell-based; settings: Mycobacterium tuberculosis; M. tuberculosis ATCC 27294 (H37Rv); read-out: Minimum inhibitory concentration (MIC)
786-0 = test: cells; settings: Homo sapiens, 786-0, 48 h; for CC50: read-out: LC50
SK-MEL-2 = test: cells; settings: Homo sapiens, SK-MEL-2, 48 h; for CC50: read-out: LC50
NCI-H522 = test: cells; settings: Homo sapiens, NCI-H522, 48 h; for CC50: read-out: LC50
SK-MEL-5 = test: cells; settings: Homo sapiens, SK-MEL-5, 48 h; for CC50: read-out: LC50
HOP-62 = test: cells; settings: Homo sapiens, HOP-62, 48 h; for CC50: read-out: LC50
KM12 = test: cells; settings: Homo sapiens, KM12, 48 h; for CC50: read-out: LC50
NCI-H322M = test: cells; settings: Homo sapiens, 48 h; for CC50: read-out: LC50
OVCAR-3 = test: cells; settings: Homo sapiens, OVCAR-3, 48 h; for CC50: read-out: LC50
SF-295 = test: cells; settings: Homo sapiens, SF-295, 48 h; for CC50: read-out: LC50
HT29 = test: cells; settings: Homo sapiens, HT-29, 48 h; for CC50: read-out: LC50
MDA-MB-468 = test: cells; settings: Homo sapiens, MDA-MB-468, 48 h; for CC50: read-out: LC50
U251 = test: cells; settings: Homo sapiens, U-251, 48 h; for GI50: U251, 48 h; for CC50: read-out: LC50
SR = test: cells; settings: Homo sapiens, 48 h; for CC50: read-out: LC50
T-47D = test: cells; settings: Homo sapiens, T47D, 48 h; for CC50: read-out: LC50
DU-145 = test: cells; settings: Homo sapiens, DU-145, 48 h; for CC50: read-out: LC50
SNB-19 = test: cells; settings: Homo sapiens, SNB-19, 48 h; for CC50: read-out: LC50
SF-268 = test: cells; settings: Homo sapiens, SF-268, 48 h; for CC50: read-out: LC50
CAKI-1 = test: cells; settings: Homo sapiens, CAKI-1, 48 h; for CC50: read-out: LC50
NCI/ADR-RES = test: cells; settings: Homo sapiens, 48 h; for CC50: read-out: LC50
HCT-15 = test: cells; settings: Homo sapiens, HCT-15, 48 h; for CC50: read-out: LC50
UACC-62 = test: cells; settings: Homo sapiens, UACC-62, 48 h; for CC50: read-out: LC50
UO-31 = test: cells; settings: Homo sapiens, UO-31, 48 h; for CC50: read-out: LC50
OVCAR-4 = test: cells; settings: Homo sapiens, OVCAR-4, 48 h; for CC50: read-out: LC50
[2] = test system: N. gonorrhoeae ATCC 49226; test: MIC on GC agar plates; format: cell-based, Neisseria gonorrhoeae; settings: Neisseria gonorrhoeae, ATCC49226, read-out: MIC
Summary of the method: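 Agar dilution was used: GC agar with 1% IsoVitaleX containing increasing compound concentrations was inoculated with 1 × 10^4 CFU. The MIC was taken as the lowest concentration inhibiting growth, with growth confirmed by oxidase test, in duplicate across at least two independent experiments.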

## Cc1ccc(/C=C/C(=O)c2ccc(S(=O)(=O)NCCNc3nc(Nc4ccc(F)cc4)nc(N(C)C)n3)cc2)cc1 [24b]
COLO 205
  GI50: 6.51 µM
  CC50: 55.1 µM
[1]
  MIC: 25 µg/mL (≈ 43.4 µM)
786-0
  GI50: 10.5 µM
  CC50: 51 µM
SK-MEL-2
  GI50: 11.2 µM
  CC50: 52.3 µM
NCI-H522
  GI50: 5.24 µM
  CC50: 45.3 µM
SK-MEL-5
  GI50: 8.25 µM
  CC50: 45.9 µM
HOP-62
  GI50: 15.3 µM
  CC50: 64.8 µM
KM12
  GI50: 5.41 µM
  CC50: 99.7 µM
NCI-H322M
  GI50: 11.8 µM
  CC50: 62.5 µM
OVCAR-3
  GI50: 11.3 µM
  CC50: 54.6 µM
SF-295
  GI50: 11.5 µM
  CC50: 49.2 µM
HT29
  GI50: 2.38 µM
  CC50: 16.2 µM
MDA-MB-468
  GI50: 4.66 µM
  CC50: 43 µM
U251
  GI50: 11.6 µM
  CC50: 58.7 µM
SR
  GI50: 2.76 µM
  CC50: > 100 µM
T-47D
  GI50: 3.86 µM
  CC50: 52.7 µM
DU-145
  GI50: 14 µM
  CC50: 74.8 µM
SNB-19
  GI50: 11 µM
  CC50: 50.2 µM
SF-268
  GI50: 8.76 µM
  CC50: 90.9 µM
CAKI-1
  GI50: 6.98 µM
  CC50: 58 µM
NCI/ADR-RES
  GI50: 8.4 µM
  CC50: 47.1 µM
HCT-15
  GI50: 3.92 µM
  CC50: 35.3 µM
UACC-62
  GI50: 8.4 µM
  CC50: 47.1 µM
UO-31
  GI50: 6.77 µM
  CC50: 44.7 µM
OVCAR-4
  GI50: 7.79 µM
  CC50: > 100 µM

## CN(C)c1nc(NCCNS(=O)(=O)c2ccc(C3=Nc4c(N)nc(N)nc4NC(c4ccccc4)C3)cc2)nc(Nc2ccc(F)cc2)n1 (stereo not shown) [31a]
COLO 205
  GI50: 16.4 µM
  CC50: > 100 µM
[1]
  MIC: 1.2 µg/mL (≈ 1.75 µM)
786-0
  GI50: 7.88 µM
  CC50: > 100 µM
SK-MEL-2
  GI50: 28.5 µM
  CC50: > 100 µM
NCI-H522
  GI50: 77.4 µM
  CC50: > 100 µM
SK-MEL-5
  GI50: 5.81 µM
  CC50: 20.5 µM
HOP-62
  GI50: 99.7 µM
  CC50: > 100 µM
KM12
  GI50: 8.8 µM
  CC50: > 100 µM
NCI-H322M
  GI50: > 100 µM
  CC50: > 100 µM
OVCAR-3
  GI50: 69.3 µM
  CC50: > 100 µM
SF-295
  GI50: 9.49 µM
  CC50: > 100 µM
HT29
  GI50: 5.32 µM
  CC50: > 100 µM
MDA-MB-468
  GI50: 3.37 µM
  CC50: 13.7 µM
U251
  GI50: 18.4 µM
  CC50: > 100 µM
[2]
  MIC: 8 µg/mL (≈ 11.7 µM)
T-47D
  GI50: 5.12 µM
  CC50: > 100 µM
DU-145
  GI50: > 100 µM
  CC50: > 100 µM
SNB-19
  GI50: 21.8 µM
  CC50: > 100 µM
SF-268
  GI50: 9.85 µM
  CC50: > 100 µM
CAKI-1
  GI50: 9.73 µM
  CC50: > 100 µM
NCI/ADR-RES
  GI50: > 100 µM
  CC50: > 100 µM
HCT-15
  GI50: > 100 µM
  CC50: > 100 µM
UACC-62
  GI50: 31.5 µM
  CC50: > 100 µM
UO-31
  GI50: > 100 µM
  CC50: > 100 µM
OVCAR-4
  GI50: 74.6 µM
  CC50: > 100 µM

## COc1cc(/C=C/C(=O)c2ccc(S(=O)(=O)NCCNc3nc(Nc4ccc(F)cc4)nc(N(C)C)n3)cc2)cc(OC)c1OC [24d]
COLO 205
  GI50: 4.78 µM
  CC50: 86.1 µM
[1]
  MIC: 50 µg/mL (≈ 76.7 µM)
786-0
  GI50: 2.94 µM
  CC50: 51.9 µM
SK-MEL-2
  GI50: 13.5 µM
  CC50: 59.5 µM
NCI-H522
  GI50: 6.45 µM
  CC50: 50 µM
SK-MEL-5
  GI50: 3.4 µM
  CC50: 36.2 µM
HOP-62
  GI50: 14.1 µM
  CC50: 59.9 µM
KM12
  GI50: 2.07 µM
NCI-H322M
  GI50: 10.1 µM
  CC50: > 100 µM
OVCAR-3
  GI50: 6.18 µM
  CC50: 98.4 µM
SF-295
  GI50: 2.16 µM
  CC50: 11.1 µM
HT29
  GI50: 1.93 µM
  CC50: 6.46 µM
MDA-MB-468
  GI50: 2 µM
  CC50: 11.5 µM
U251
  GI50: 1.81 µM
  CC50: 6.89 µM
SR
  GI50: 2.42 µM
  CC50: > 100 µM
T-47D
  GI50: 3.48 µM
  CC50: > 100 µM
DU-145
  GI50: 10.9 µM
  CC50: > 100 µM
SNB-19
  GI50: 11.2 µM
  CC50: 48.7 µM
SF-268
  GI50: 11.7 µM
  CC50: > 100 µM
CAKI-1
  GI50: 5.2 µM
  CC50: > 100 µM
NCI/ADR-RES
  GI50: 3.38 µM
  CC50: 56.3 µM
HCT-15
  GI50: 1.8 µM
  CC50: 6.57 µM
UACC-62
  GI50: 8.28 µM
  CC50: 48.8 µM
UO-31
  GI50: 4.45 µM
  CC50: 41.4 µM
OVCAR-4
  GI50: 8.02 µM
  CC50: > 100 µM
